Assays:
[1] = tested on: Human immunodeficiency virus 1; assay: Antiviral activity against HIV-1 YU2 […] infected in human TZM-bl cells assessed as reduction in viral replication; format: functional, organism-based; settings: Human immunodeficiency virus 1, YU2[…]
[2] = tested on: Human immunodeficiency virus 1; assay: Antiviral activity against HIV-1 NL4-3(X4) infected in human TZM-bl cells assessed as reduction in viral replication; format: functional, organism-based; settings: Human immunodeficiency virus 1, NL4-3(X4)
[3] = tested on: Human immunodeficiency virus 1; assay: Antiviral activity against HIV-1 89.6 infected in human TZM-bl cells assessed as reduction in viral replication; format: functional, organism-based; settings: Human immunodeficiency virus 1, 89.6, TZM-bl
[4] = Cytotoxicity against human TZM-bl cells assessed as reduction in cell viability by CellTitre-Glo assay; format: toxicity, cell-based
[5] = Selectivity index, ratio of CC50 for human TZM-bl cells to IC50 for IC50 for antiviral activity against HIV-1 89.6 infected in human TZM-bl cells; format: toxicity, cell-based; settings: read-out: Ratio CC50/IC50
[6] = tested on: Human immunodeficiency virus 1; assay: Synergistic antiviral activity against HIV-1 89.6 infected in human TZM-bl cells assessed as compound dose reduction index at 450:1 compound and b12 antibody ratio; format: functional
[7] = tested on: Human immunodeficiency virus 1; assay: Synergistic antiviral activity against HIV-1 89.6 infected in human TZM-bl cells assessed as compound dose reduction index at 45:1 compound and 2G12 antibody ratio; format: functional
[8] = tested on: Human immunodeficiency virus 1; assay: Synergistic antiviral activity against HIV-1 89.6 infected in human TZM-bl cells assessed as compound dose reduction index at 45:1 compound and 2F5 antibody ratio; format: functional
[9] = tested on: Human immunodeficiency virus 1; assay: Synergistic antiviral activity against HIV-1 89.6 infected in human TZM-bl cells assessed as compound dose reduction index at 45:1 compound and 4E10 antibody ratio; format: functional
[10] = tested on: Human immunodeficiency virus 1; assay: Synergistic antiviral activity against HIV-1 89.6 infected in human TZM-bl cells assessed as compound dose reduction index at 45:1 compound and KD-247 antibody ratio; format: functional
[11] = tested on: Human immunodeficiency virus 1; assay: Synergistic antiviral activity against HIV-1 89.6 infected in human TZM-bl cells assessed as compound dose reduction index at 45:1 compound and 447-52D antibody ratio; format: functional
[12] = tested on: Human immunodeficiency virus 1; assay: Synergistic antiviral activity against HIV-1 89.6 infected in human TZM-bl cells assessed as antibody dose reduction index at 450:1 compound and b12 antibody ratio; format: functional
[13] = tested on: Human immunodeficiency virus 1; assay: Synergistic antiviral activity against HIV-1 89.6 infected in human TZM-bl cells assessed as antibody dose reduction index at 45:1 compound and 2G12 antibody ratio; format: functional
[14] = tested on: Human immunodeficiency virus 1; assay: Synergistic antiviral activity against HIV-1 89.6 infected in human TZM-bl cells assessed as antibody dose reduction index at 45:1 compound and 2F5 antibody ratio; format: functional
[15] = tested on: Human immunodeficiency virus 1; assay: Synergistic antiviral activity against HIV-1 89.6 infected in human TZM-bl cells assessed as antibody dose reduction index at 45:1 compound and 4E10 antibody ratio; format: functional
[16] = tested on: Human immunodeficiency virus 1; assay: Synergistic antiviral activity against HIV-1 89.6 infected in human TZM-bl cells assessed as antibody dose reduction index at 45:1 compound and KD-247 antibody ratio; format: functional
[17] = tested on: Human immunodeficiency virus 1; assay: Synergistic antiviral activity against HIV-1 89.6 infected in human TZM-bl cells assessed as antibody dose reduction index at 45:1 compound and 447-52D antibody ratio; format: functional
[18] = tested on: Human immunodeficiency virus 1; assay: Synergistic antiviral activity against HIV-1 89.6 infected in human TZM-bl cells assessed as combination index at 450:1 compound and b12 antibody ratio; format: functional
[19] = tested on: Human immunodeficiency virus 1; assay: Synergistic antiviral activity against HIV-1 89.6 infected in human TZM-bl cells assessed as combination index at 45:1 compound and 2G12 antibody ratio; format: functional
[20] = tested on: Human immunodeficiency virus 1; assay: Synergistic antiviral activity against HIV-1 89.6 infected in human TZM-bl cells assessed as combination index at 45:1 compound and 2F5 antibody ratio; format: functional
[21] = tested on: Human immunodeficiency virus 1; assay: Synergistic antiviral activity against HIV-1 89.6 infected in human TZM-bl cells assessed as combination index at 45:1 compound and 4E10 antibody ratio; format: functional
[22] = tested on: Human immunodeficiency virus 1; assay: Synergistic antiviral activity against HIV-1 89.6 infected in human TZM-bl cells assessed as combination index at 45:1 compound and KD-247 antibody ratio; format: functional
[23] = tested on: Human immunodeficiency virus 1; assay: Synergistic antiviral activity against HIV-1 89.6 infected in human TZM-bl cells assessed as combination index at 45:1 compound and 447-52D antibody ratio; format: functional

## C=C(C)[C@@H]1CC[C@]2(C(=O)NCCCCCCCC(=O)N[C@@H](CC(C)C)[C@H](O)CC(=O)O)CC[C@]3(C)[C@H](CC[C@@H]4[C@@]5(C)CC[C@H](O)C(C)(C)[C@@H]5CC[C@]43C)[C@@H]12
[1]
  IC50: 5.8 µM
[2]
  IC50: 320 nM
[3]
  IC50: 200 nM
[4]
  CC50: 8.9 µM
[5]
  selectivity ratio: 45

## CC(C)C[C@H](NC(=O)CCCCCCCNC(=O)[C@]12CCC(C)(C)C[C@H]1C1=CC[C@@H]3[C@@]4(C)CC[C@H](O)C(C)(C)[C@@H]4CC[C@@]3(C)[C@]1(C)CC2)[C@@H](O)CC(=O)O
[1]
  IC50: 25 µM
[2]
  IC50: 1700 nM
[3]
  IC50: 790 nM
[4]
  CC50: 78 µM
[5]
  selectivity ratio: 99
[6]
  Activity_index: 3.2
[7]
  Activity_index: 4.9
[8]
  Activity_index: 4.3
[9]
  Activity_index: 2.9
[10]
  Activity_index: 3.3
[11]
  Activity_index: 3.8
[12]
  Activity_index: 3.6
[13]
  Activity_index: 3.1
[14]
  Activity_index: 2.7
[15]
  Activity_index: 5.5
[16]
  Activity_index: 2.9
[17]
  Activity_index: 3.9
[18]
  CI: 0.68
[19]
  CI: 0.59
[20]
  CI: 0.69
[21]
  CI: 0.59
[22]
  CI: 0.75
[23]
  CI: 0.59

## CC(C)C[C@H](NC(=O)CCCCCCCNC(=O)[C@@]1(C)CC[C@]2(C)CC[C@]3(C)C(=CC(=O)[C@@H]4[C@@]5(C)CC[C@H](O)C(C)(C)[C@@H]5CC[C@]43C)[C@@H]2C1)[C@@H](O)CC(=O)O
[1]
  IC50: > 100 µM
[2]
  IC50: > 100000 nM
[3]
  IC50: > 100000 nM
[4]
  CC50: > 300 µM

## CC(C)C[C@H](NC(=O)CCCCCCCNC(=O)[C@]12CCC(C)(C)C[C@H]1[C@H]1C(=O)C[C@@H]3[C@@]4(C)CC[C@H](O)C(C)(C)[C@@H]4CC[C@@]3(C)[C@]1(C)CC2)[C@@H](O)CC(=O)O
[1]
  IC50: 16 µM
[2]
  IC50: 500 nM
[3]
  IC50: 390 nM
[4]
  CC50: 128 µM
[5]
  selectivity ratio: 328

## CC(C)C[C@H](NC(=O)CCCCCCCNC(=O)[C@]12CC[C@@H](C)[C@H](C)[C@H]1C1=CC[C@@H]3[C@@]4(C)CC[C@H](O)C(C)(C)[C@@H]4CC[C@@]3(C)[C@]1(C)CC2)[C@@H](O)CC(=O)O
[1]
  IC50: 43 µM
[2]
  IC50: 3700 nM
[3]
  IC50: 3500 nM
[4]
  CC50: 95 µM
[5]
  selectivity ratio: 27

## CC(C)C[C@H](NC(=O)CCCCCCCNC(=O)[C@@]1(C)CC[C@]2(C)CC[C@]3(C)C(=CC(=O)[C@@H]4[C@@]5(C)CC[C@H](O)C(C)(C)[C@@H]5CC[C@]43C)[C@@H]2C1)[C@H](O)CC(=O)O
[1]
  IC50: > 100 µM
[2]
  IC50: > 100000 nM
[3]
  IC50: > 100000 nM
[4]
  CC50: > 300 µM

## CC(C)C[C@H](NC(=O)CCCCCCCNC(=O)[C@]12CC[C@@H](C)[C@H](C)[C@H]1C1=CC[C@@H]3[C@@]4(C)CC[C@H](O)C(C)(C)[C@@H]4CC[C@@]3(C)[C@]1(C)CC2)[C@H](O)CC(=O)O
[1]
  IC50: 40 µM
[2]
  IC50: 3900 nM
[3]
  IC50: 1100 nM
[4]
  CC50: 71 µM
[5]
  selectivity ratio: 65

## CC(C)C[C@H](NC(=O)CCCCCCCNC(=O)[C@]12CCC(C)(C)C[C@H]1C1=CC[C@@H]3[C@@]4(C)CC[C@H](O)C(C)(C)[C@@H]4CC[C@@]3(C)[C@]1(C)CC2)[C@H](O)CC(=O)O
[1]
  IC50: 42 µM
[2]
  IC50: 3200 nM
[3]
  IC50: 1000 nM
[4]
  CC50: 26 µM
[5]
  selectivity ratio: 26

## C=C(C)[C@@H]1CC[C@]2(C(=O)NCCCCCCCC(=O)N[C@@H](CC(C)C)[C@@H](O)CC(=O)O)CC[C@]3(C)[C@H](CC[C@@H]4[C@@]5(C)CC[C@H](O)C(C)(C)[C@@H]5CC[C@]43C)[C@@H]12
[1]
  IC50: 80 µM
[2]
  IC50: 270 nM
[3]
  IC50: 170 nM
[4]
  CC50: 17 µM
[5]
  selectivity ratio: 100
